Reference: the supplement of paper PMC10307832

Assays:
Assay in all cases: relative viability (nuclei count vs DMSO), 5 days (fraction); higher = more cells survive
AZD6482 + Tozasertib = compound: Cc1cc([C@@H](C)Nc2ccccc2C(=O)O)c2nc(N3CCOCC3)cc(=O)n2c1 [AZD6482] + Cc1cc(Nc2cc(N3CCN(C)CC3)nc(Sc3ccc(NC(=O)C4CC4)cc3)n2)n[nH]1 [Tozasertib] (partner 0.1 µM)
Outline: (§1)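 Each reported value is a median over duplicate plates. It expresses relative viability: treated-well nuclei count divided by vehicle-well nuclei count. Lung cancer cell lines in 1536-well plates were dosed by pin tool a day after seeding, alone with one drug or with a fixed anchor-drug dose plus five library-drug doses (not always all listed) in √10 steps, and nuclei were counted after 5 days.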

AZD6482 + Pemetrexed = compound: Cc1cc([C@@H](C)Nc2ccccc2C(=O)O)c2nc(N3CCOCC3)cc(=O)n2c1 [AZD6482] + Nc1nc2[nH]cc(CCc3ccc(C(=O)N[C@@H](CCC(=O)O)C(=O)O)cc3)c2c(=O)[nH]1 [Pemetrexed] (partner 0.2 µM)
Outline: as §1

AZD6482 + Foretinib = compound: Cc1cc([C@@H](C)Nc2ccccc2C(=O)O)c2nc(N3CCOCC3)cc(=O)n2c1 [AZD6482] + COc1cc2c(Oc3ccc(NC(=O)C4(C(=O)Nc5ccc(F)cc5)CC4)cc3F)ccnc2cc1OCCCN1CCOCC1 [Foretinib] (partner 0.25 µM)
Outline: as §1

[1] = compound: COc1cc2nc(N3CCCN(C)CC3)nc(NC3CCN(Cc4ccccc4)CC3)c2cc1OC + Nc1nc2[nH]cc(CCc3ccc(C(=O)N[C@@H](CCC(=O)O)C(=O)O)cc3)c2c(=O)[nH]1 [Pemetrexed] (partner 0.2 µM)
Outline: as §1

| Cell Line | relative viability (AZD6482 + Tozasertib; first compound 0.08 µM) | relative viability (AZD6482 + Tozasertib; first compound 0.253 µM) | relative viability (AZD6482 + Tozasertib; first compound 0.8 µM) | relative viability (AZD6482 + Tozasertib; first compound 2.53 µM) | relative viability (AZD6482 + Tozasertib; first compound 8 µM) | relative viability (AZD6482 + Pemetrexed; first compound 0.08 µM) | relative viability (AZD6482 + Pemetrexed; first compound 0.253 µM) | relative viability (AZD6482 + Pemetrexed; first compound 0.8 µM) | relative viability (AZD6482 + Pemetrexed; first compound 2.53 µM) | relative viability (AZD6482 + Pemetrexed; first compound 8 µM) | relative viability (AZD6482 + Foretinib; first compound 0.08 µM) | relative viability (AZD6482 + Foretinib; first compound 0.253 µM) | relative viability (AZD6482 + Foretinib; first compound 0.8 µM) | relative viability (AZD6482 + Foretinib; first compound 2.53 µM) | relative viability (AZD6482 + Foretinib; first compound 8 µM) | relative viability ([1]; first compound 0.2 µM) | relative viability ([1]; first compound 0.6325 µM) | relative viability ([1]; first compound 2 µM) | relative viability ([1]; first compound 6.325 µM) |
| --- | --- | --- | --- | --- | --- | --- | --- | --- | --- | --- | --- | --- | --- | --- | --- | --- | --- | --- | --- |
| NCI-H2342 | 0.465 | 0.432 | 0.488 | 0.372 | 0.359 | 0.745 | 0.681 | 0.726 | 0.609 | 0.567 | 0.927 | 0.891 | 0.987 | 0.614 | 0.653 | 0.81 | 0.742 | 0.741 | 0.761 |
| HCC-15 | 0.344 | 0.332 | 0.377 | 0.37 | 0.293 | 0.208 | 0.231 | 0.244 | 0.228 | 0.212 | 0.989 | 0.882 | 1.01 | 0.853 | 0.988 | 0.216 | 0.225 | 0.214 | 0.208 |
| A-427 | 0.219 | 0.214 | 0.188 | – | 0.209 | 0.92 | 0.967 | 0.963 | 0.686 | 0.995 | 0.959 | 0.937 | 1.13 | – | 1.05 | 0.899 | 1 | 1.03 | 1.03 |
| NCI-H2228 | – | 0.257 | 0.235 | 0.287 | 0.155 | 0.325 | 0.3 | 0.325 | 0.303 | 0.309 | – | 0.791 | 0.862 | 0.694 | 0.649 | 0.32 | 0.347 | 0.336 | 0.26 |
| NCI-H1734 | 0.287 | 0.263 | 0.269 | 0.217 | 0.24 | 0.408 | 0.442 | 0.408 | 0.396 | 0.397 | 0.829 | 0.788 | 0.875 | 0.604 | 0.671 | 0.405 | 0.414 | 0.401 | 0.424 |
| PC-14 | 0.556 | 0.61 | 0.619 | 0.613 | 0.524 | 0.133 | 0.125 | 0.115 | 0.15 | 0.135 | 0.906 | 0.9 | 0.945 | 0.83 | 0.953 | 0.133 | 0.153 | 0.118 | 0.0737 |
| NCI-H1915 | 0.453 | 0.346 | 0.417 | 0.426 | 0.371 | 0.491 | 0.434 | 0.513 | 0.349 | 0.452 | 1.05 | 1.02 | 1.1 | 1 | 1.09 | 0.48 | 0.442 | 0.503 | 0.463 |
| NCI-H1666 | 0.544 | 0.701 | 0.592 | 0.554 | 0.648 | 0.902 | 0.964 | 0.905 | 0.735 | 0.82 | 0.914 | 0.868 | 1.03 | 0.785 | 0.989 | 0.885 | 0.785 | 0.766 | 0.872 |
| HCC-366 | 0.108 | 0.0944 | 0.0731 | 0.12 | 0.063 | 0.173 | 0.202 | 0.204 | 0.209 | 0.275 | 0.938 | 0.897 | 0.936 | 0.759 | 0.447 | 0.186 | 0.151 | 0.171 | 0.164 |
| NCI-H1623 | 0.384 | 0.382 | 0.397 | 0.419 | 0.371 | – | – | – | – | – | 0.778 | 0.888 | 0.923 | 0.703 | 0.682 | – | – | – | – |
| Calu-6 | – | – | – | – | – | – | – | – | – | – | 0.789 | 0.815 | 0.9 | 0.644 | 0.765 | – | – | – | – |
| ABC-1 | 0.168 | 0.158 | 0.155 | 0.201 | 0.216 | – | – | – | – | – | 0.868 | 1.21 | 1.03 | 0.86 | 0.719 | – | – | – | – |
| NCI-H1299 | – | – | – | – | – | – | – | – | – | – | 1.06 | 1.13 | 1.31 | 1.11 | 1.12 | – | – | – | – |
| EBC-1 | – | – | – | – | – | – | – | – | – | – | 0.102 | 0.104 | 0.124 | 0.0931 | 0.115 | – | – | – | – |
| NCI-H1648 | 0.538 | 0.463 | 0.588 | 0.351 | 0.409 | 0.892 | 0.625 | 0.816 | – | 0.671 | – | – | – | – | – | – | 0.904 | – | 0.791 |
| NCI-H1792 | – | – | – | – | – | 0.63 | 0.632 | 0.641 | 0.303 | 0.417 | – | – | – | – | – | 0.74 | 0.826 | 0.985 | 0.752 |
| HCC-44 | 0.945 | 0.895 | 0.88 | 0.957 | 0.829 | 0.669 | 0.661 | 0.763 | 0.741 | 0.831 | – | – | – | – | – | 0.67 | 0.636 | 0.611 | 0.646 |
| A549 | – | – | – | – | – | – | – | – | – | – | 0.898 | 0.842 | 0.979 | 0.596 | 0.743 | – | – | – | – |
| NCI-H1563 | – | – | – | – | – | 0.666 | 0.676 | 0.642 | 0.605 | 0.698 | 0.89 | 0.875 | 0.908 | 0.765 | 0.652 | 0.646 | 0.9 | 0.879 | 0.896 |
| NCI-H522 | 0.541 | 0.439 | 0.623 | 0.523 | 0.543 | 0.932 | 0.933 | 1.11 | 0.87 | 0.923 | – | – | – | – | – | 1.05 | 0.924 | 1.09 | 0.78 |
| IA-LM | – | – | – | – | – | – | – | – | – | – | 1.18 | 1.2 | 1.52 | – | 1.09 | – | – | – | – |
| NCI-H1703 | – | – | – | – | – | – | – | – | – | – | 0.266 | 0.414 | 0.322 | 0.259 | 0.259 | – | – | – | – |
| NCI-H727 | 0.587 | 0.645 | 0.571 | 0.457 | 0.449 | – | – | – | – | – | 0.828 | 0.862 | 1.03 | 0.786 | 0.797 | – | – | – | – |
